This note sets out measurements from US10752588B2 (The Broad Institute, Inc., priority 2014, dated 2020).

Converted amounts (≈) assume the structure as drawn. Like-named read-outs stand apart in the source and are kept apart here.

The target of series [1] is T1, human D2R/β-arrestin (Homo sapiens (Human), UniProt P14416). Nature of the series: β-Arrestin agonist assay (PathHunter). The series is classed as cell-based. The following applies: CHO-K1 cell line expressing human D2R/β-arrestin. In short, it runs like this: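 Readout follows addition of Buffer:Emerald II:Galactor-Star reagent (19:5:1) to agonist-treated plates, measured as luminescence or fluorescence.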
T1 sequence (P14416 whole entry): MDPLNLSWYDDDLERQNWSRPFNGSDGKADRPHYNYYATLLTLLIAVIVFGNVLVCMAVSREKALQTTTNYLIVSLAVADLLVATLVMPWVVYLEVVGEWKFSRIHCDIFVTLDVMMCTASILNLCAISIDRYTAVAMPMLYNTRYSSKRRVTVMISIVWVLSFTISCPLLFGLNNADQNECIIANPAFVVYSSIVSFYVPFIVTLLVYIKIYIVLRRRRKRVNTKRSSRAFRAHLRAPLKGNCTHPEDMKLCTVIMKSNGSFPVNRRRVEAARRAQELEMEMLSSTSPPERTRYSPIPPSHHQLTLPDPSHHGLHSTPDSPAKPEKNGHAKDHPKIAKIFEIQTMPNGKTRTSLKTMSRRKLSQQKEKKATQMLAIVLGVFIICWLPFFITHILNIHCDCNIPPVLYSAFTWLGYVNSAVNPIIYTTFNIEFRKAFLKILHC

Series [2] concerns the target T1, human D2R/β-arrestin. The conditions noted are these: read-out: β-arrestin Antagonist.
Method: (§1) The detection reagents are then added, and the read-out is detected.
(§2) Cells were prepared for assays by growing cultures for up to 2 weeks (from about 6-20 passages). A vial of frozen cells was thawed in a water bath held at 37° C. The cells were then transferred into a 50 ml tube with 10 ml growth media. The vial was rinsed with growth media and the contents transferred to the 50 ml tube. The 50 ml tube was centrifuged at 1200 rpm for 5 minutes at room temperature. […] When the cells reached about 90% confluence (approximately 3 days between passages), the cells were passaged and used for either the agonist or antagonist assays as described below.
(§3) The cells were prepared for β-arrestin assays as described above. The assays were performed using a PathHunter® β-Arrestin Detecting Kit (DiscoveRX). The cells were grown on 225 mm dishes, then washed once with 1×PBS (Cellgro), followed by digestion with 2.5 ml 1× Detachment reagent (DRX 92-0009) for approximately 2 minutes.
The target of series [3] is T1, human D2R/β-arrestin. As to the kind of experiment: Gi/cAMP agonist assay (Lance Ultra cAMP, Forskolin). It is filed as cell-based. The conditions noted are these: CHO-K1 cell line expressing human D2R/β-arrestin. An outline of the steps: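 Read-out was Lance Ultra competitive TR-FRET (Eu-cAMP tracer plus ULight-anti-cAMP) following forskolin-induced cAMP production. Before forskolin stimulation, compounds were pin-transferred onto the seeded cells for 10 min at 37 °C.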

Series [4] in a line: Microsomal stability, mouse.
In series [5] the target is T1, human D2R/β-arrestin. The following applies: read-out: cAMP Antagonist.
For series [6], the target named is T1, human D2R/β-arrestin. As to the kind of experiment: cell-based. The conditions noted are these: β-arrestin Antagonist.
Method: as §1, §2, §3
For series [7], the target named is T1, human D2R/β-arrestin. As to the kind of experiment: cell-based. The conditions noted are these: cAMP Antagonist.
For series [8], the target named is D2 (Homo sapiens (Human), UniProt P14416). Nature of the series: D2 radioligand binding assay.
Sequence of D2 (P14416 whole entry): as above
The nature of series [9]: Plasma stability, rat. The series is classed as in vitro ADME.
The nature of series [10]: Microsomal stability, rat. It is filed as in vitro ADME.
Series [11] is described as follows: Microsomal stability, human. The series is classed as in vitro ADME.
A short description of series [12]: Solubility in PBS. It is filed as physicochemical. The conditions noted are these: aqueous buffer.
The nature of series [13]: Plasma stability, human. The series is classed as in vitro ADME.
Series [14] in a line: Plasma stability, mouse.
Setting [15] is: CHO-K1 cell line expressing human D2R/β-arrestin, quinpirole used as agonist.

Usually EC50 stands for the concentration needed to bring the measured effect to its halfway point. Read a high EC50 as weaker potency. Regarding `O=C(NC(c1ccc(Cl)cc1)c1ccccn1)C1CCN(CCOc2ccccc2C(F)(F)F)CC1` (single isomer, unassigned) [Compound 6a], the EC50 in series [1] and in [3] was greater than 30000 nM in each case. Besides, the IC50 in series [2] and in [5] was less than 100 nM each time. Besides, in series [4], the “Microsomal Stability: % remaining after 60 minutes” value (“Microsomal Stability: % remaining” for short) is recorded as “m31%”.
Take `O=C(NC(c1ccc(Cl)cc1)c1ccccn1)C1CCN(CCOc2ccccc2C(F)(F)F)CC1` (single isomer, unassigned) [Compound 6b]: the EC50 in series [1] and in series [3] was greater than 30000 nM in each case. In addition, the IC50 in series [2] and in [5] was less than 100 nM throughout. Moreover, the “Microsomal Stability: % remaining” value in series [4] was “m2%”.
As for `COc1cccc(C(NC(=O)C2CCN(CCOc3ccccc3F)CC2)c2ccccn2)c1` (single isomer, unassigned) [Compound 22b, 1-(2-(2-fluorophenoxy)ethyl)-N-((3-methoxyphenyl)(pyridin-2-yl)methyl) piperidine-4-carboxamide], the EC50 in [1] and in series [3] was greater than 30000 nM in each case. In addition, the IC50 in series [2] and in series [5] was 100 to 1000 nM throughout. Further, the “Microsomal Stability: % remaining” value in series [4] is “m12%”.
For the compound `CC1(C(=O)NC(c2ccc(F)cc2)c2ccccn2)CCN(CCOc2ccccc2C(F)(F)F)CC1` (single isomer, unassigned) [Compound 70b, N-((4-fluorophenyl)(pyridin-2-yl)methyl)-4-methyl-1-(2-(2-(trifluoromethyl)phenoxy)ethyl) piperidine-4-carboxamide], the concentration giving a half-maximal response (EC50) in [1] is greater than 30000 nM; in [3], less than 100 nM. Moreover, the IC50 in [2] was 1000 to 10000 nM; in series [5] it was greater than 30000 nM. Also, the “Microsomal Stability: % remaining” value in [4] was “m0%”.
One may read the Ki as the dissociation constant of the complex between target and ligand, obtained from inhibition or displacement. As for `COc1cccc(C(c2ccccn2)N(C)CC2CCN(CCOc3ccccc3F)CC2)c1` (single isomer, unassigned) [Compound 77a, N-((1-(2-(2-fluorophenoxy)ethyl)piperidin-4-yl)methyl)-1-(3-methoxyphenyl)-N-methyl-1-(pyridin-2-yl)methanamine], the concentration for a half-maximal effect (EC50) was greater than 30000 nM in [1] and 100 to 1000 nM in [3]. Moreover, the IC50 in [6] (setting [15]) and in series [7] (setting [15]) was 100 to 1000 nM throughout. In series [4], the “Microsomal Stability: % remaining” value was “m1%”. The inhibition constant (Ki) in series [8] lay in the range of 100 to 1000 nM.
On to `O=C(NC(c1ccc2c(c1)OC(F)(F)O2)c1ccccn1)C1CCN(CCOc2ccccc2F)CC1` (single isomer, unassigned) [Compound 94a, N-((2,2-difluorobenzo[d][1,3]dioxol-5-yl)(pyridin-2-yl)methyl)-1-(2-(2-fluorophenoxy)ethyl)piperidine-4-carboxamide], for which the EC50 in series [1] and in [3] was greater than 30000 nM each time. The figures for the IC50 in series [6] (setting [15]) and in [7] (setting [15]) were 100 to 1000 nM and less than 100 nM, respectively. Moreover, in [4], the “Microsomal Stability: % remaining” value was “m2%”. Further, the Ki in series [8] was in the range of 100 to 1000 nM.
Take `O=C(NC(c1ccc2c(c1)OC(F)(F)O2)c1ccccn1)C1CCN(CCOc2ccccc2F)CC1` (single isomer, unassigned) [Compound 94b, N-((2,2-difluorobenzo[d][1,3]dioxol-5-yl)(pyridin-2-yl)methyl)-1-(2-(2-fluorophenoxy)ethyl)piperidine-4-carboxamide]: the results for the concentration for a half-maximal effect (EC50) in series [1] and in series [3] were 100 to 1000 nM and less than 100 nM, respectively. For the same compound, the IC50 in [6] (setting [15]) and in series [7] (setting [15]) was greater than 30000 nM throughout. Moreover, the “Microsomal Stability: % remaining” value in series [4] was “m26%”. This compound also registered a Ki in [8] of 100 to 1000 nM.
For `O=C(NC(c1ccc2c(c1)OCO2)c1ccccn1)C1CCN(CCOc2ccccc2F)CC1` (single isomer, unassigned) [Compound 95b, N-(benzo[d][1,3]dioxol-5-yl(pyridin-2-yl)methyl)-1-(2-(2-fluorophenoxy)ethyl) piperidine-4-carboxamide], the values for the EC50 in series [1] and in series [3] were greater than 30000 nM and 1000 to 10000 nM, respectively. Also, the IC50 in series [2] and in series [5] was 100 to 1000 nM in each case. The “Microsomal Stability: % remaining” value in series [4] is “m12%”.
For the compound `Clc1ccc(C(NCC2CCN(CCOc3ccccc3)CC2)c2ccccn2)cc1` (single isomer, unassigned) [Compound 114a, 1-(4-chlorophenyl)-N-((1-(2-phenoxyethyl)piperidin-4-yl)methyl)-1-(pyridin-2-yl)methanamine], the 50% effective concentration (EC50) in series [1] was greater than 30000 nM; in series [3], 100 to 1000 nM. The IC50 in series [6] (setting [15]) and in [7] (setting [15]) was less than 100 nM each time. The compound also gave a Ki in series [8] of 100 to 1000 nM.
On to `O=C(NC(c1cccc(OC(F)(F)F)c1)c1ccccn1)C1CCN(CCOc2ccccc2)CC1` (single isomer, unassigned) [Compound 118b, 1-(2-phenoxyethyl)-N-(pyridin-2-yl(3-(trifluoromethoxy)phenyl)methyl) piperidine-4-carboxamide], for which the EC50 in series [1] was greater than 30000 nM; in series [3], 1000 to 10000 nM. Also, the IC50 was 1000 to 10000 nM in [2] and greater than 30000 nM in series [5]. Further, the “Microsomal Stability: % remaining” value in series [4] is on record as “m35%”.
By solubility is commonly meant how much of the substance goes into solution per volume. Take `O=C(NC(c1ccc(Cl)cc1)c1ccccn1)C1CCN(CCOc2ccc(C(F)(F)F)cc2)CC1` (stereo not drawn) [Compound 8, N-((4-chlorophenyl)(pyridin-2-yl)methyl)-1-(2-(4-(trifluoromethyl)phenoxy)ethyl) piperidine-4-carboxamide]: the EC50 is greater than 30000 nM in [1] and 10000 to 30000 nM in series [3]. Further, the IC50 in [6] (setting [15]) was 10000 to 30000 nM; in series [7] (setting [15]), greater than 30000 nM. For the same compound, the “Plasma Stability: % remaining after 5 hours” value was found to be 98.1% in [9], 100% in series [13] and 100% in series [14]. The results for the “Microsomal Stability: % remaining” value in [10], in series [11] and in series [4] were 100%, 82% and 53%, respectively. Further, the concentration in solution in series [12] (solubility) came to 1.1 µM (≈ 0.57 µg/mL).
In the case of `O=C(NC(c1ccc(Cl)cc1)c1ccccn1)C1CCN(CCOc2cccnc2)CC1` (stereo not drawn) [Compound 10], the results for the 50% effective concentration (EC50) in series [1] and in [3] were greater than 30000 nM and 100 to 1000 nM, respectively. The IC50 in series [6] (setting [15]) is 10000 to 30000 nM; in series [7] (setting [15]), greater than 30000 nM. Further, the “Microsomal Stability: % remaining” value in series [10] is recorded as 57%; in [11], 75%; in series [4], 44%. Further, in [12], the solubility is greater than 500 µM.
On to `O=C(NC(c1cccc(F)c1)c1ccccn1)C1CCN(CCOc2ccccc2)CC1` (stereo not drawn) [Compound 27], for which the values for the EC50 in [1] and in series [3] were greater than 30000 nM and 100 to 1000 nM, respectively. In addition, the IC50 in [2] was 1000 to 10000 nM; in series [5] it was greater than 30000 nM.
In the case of `COc1cccc(C(NC(=O)C2CCN(CCOc3ccccc3)CC2)c2ccccn2)c1` (stereo not drawn) [Compound 35a], the EC50 in series [1] is greater than 30000 nM; in series [3], 10000 to 30000 nM. Further, the IC50 in series [2] and in series [5] was 10000 to 30000 nM throughout.
In the case of `CN(CC1CCN(CCOc2ccccc2F)CC1)C(c1ccc(Cl)cc1)c1ccccn1` (stereo not drawn) [Compound 72, 1-(4-chlorophenyl)-N-((1-(2-(2-fluorophenoxy)ethyl)piperidin-4-yl)methyl)-N-methyl-1-(pyridin-2-yl)methanamine], the values for the EC50 in series [1] and in series [3] were greater than 30000 nM and less than 100 nM, respectively. Further, the values for the IC50 in series [6] (setting [15]) and in series [7] (setting [15]) were less than 100 nM and 1000 to 10000 nM, respectively. In addition, the Ki in series [8] was less than 100 nM.
Consider `COc1cccc(C(NCC2CCN(CCOc3ccccc3F)CC2)c2ccccn2)c1` (stereo not drawn) [Compound 88, N-((1-(2-(2-fluorophenoxy)ethyl)piperidin-4-yl)methyl)-1-(3-methoxyphenyl)-1-(pyridin-2-yl)methanamine], for which the EC50 in [1] is greater than 30000 nM; in series [3], less than 100 nM. Also, the IC50 in [6] (setting [15]) and in series [7] (setting [15]) was 100 to 1000 nM each time. In addition, the “Microsomal Stability: % remaining” value in [4] is recorded as “m1%”. This compound also had a solubility in series [12] of 461 µM (≈ 207 µg/mL).
`CC(C)N(CC1CCN(CCOc2ccccc2)CC1)C(c1ccc(Cl)cc1)c1ccccn1` (stereo not drawn) [Compound 103, N-((4-chlorophenyl)(pyridin-2-yl)methyl)-N-((1-(2-phenoxyethyl)piperidin-4-yl)methyl)propan-2-amine]: the results for the half-maximal effective concentration (EC50) in series [1] and in series [3] were greater than 30000 nM and less than 100 nM, respectively. Further, the IC50 in series [6] was less than 100 nM; in [7], greater than 30000 nM. Also, the “Microsomal Stability: % remaining” value in series [4] is listed as “m1%”. For the same compound, in [14], the “Plasma Stability: % remaining after 5 hours” value is “m97%”.
`COc1ccccc1OCCN1CCC(C(=O)NC(c2ccc(Cl)cc2)c2ccccn2)CC1` (stereo not drawn) [Compound 109, N-((4-chlorophenyl) (pyridin-2-yl)methyl)-1-(2-(2-methoxyphenoxy)ethyl)piperidine-4-carboxamide]: the EC50 in series [1] and in series [3] was greater than 30000 nM in each case. Also, the IC50 in series [6] (setting [15]) and in series [7] (setting [15]) was less than 100 nM in each case. For the same compound, the entries for the “Microsomal Stability: % remaining” value in [10], in series [11] and in [4] were 57%, 59% and 40%, respectively. The compound also yielded a solubility in series [12] greater than 500 µM.
